Experiment: method code SF, from Furst, W.; Becher, M. (1990). Homologues of 2-acetamido-4-nitropropoxybenzene (Falimint). I. Preparation, physicochemical and organoleptic properties. Pharmazie, 45(12)934-935.

| SMILES | logP |
| --- | --- |
| COc1ccc([N+](=O)[O-])cc1NC(C)=O | 1.6 |
| CCCCCC(=O)Nc1cc([N+](=O)[O-])ccc1OCCC | 2.78 |
| CCCCCCCCCCCC(=O)Nc1cc([N+](=O)[O-])ccc1OCCC | 3.48 |
| CCCOc1ccc([N+](=O)[O-])cc1NC(=O)CCC | 2.4 |
| CCCCCCCC(=O)Nc1cc([N+](=O)[O-])ccc1OCCC | 3.14 |
| CCCCCCCCCC(=O)Nc1cc([N+](=O)[O-])ccc1OCCC | 3.3 |
| CCOc1ccc([N+](=O)[O-])cc1NC(=O)CC | 1.85 |
| CCCCCCCCCCCCOc1ccc([N+](=O)[O-])cc1NC(C)=O | 3.65 |

Other lines, results leading:

| logP | SMILES |
| --- | --- |
| 3.18 | CCCCCCCCOc1ccc([N+](=O)[O-])cc1NC(C)=O |
| 2.91 | CCCCCCOc1ccc([N+](=O)[O-])cc1NC(C)=O |
| 1.93 | CCCOc1ccc([N+](=O)[O-])cc1NC(=O)CC |
| 1.6 | CCCOc1ccc([N+](=O)[O-])cc1NC(C)=O |
| 2.67 | CCCCCOc1ccc([N+](=O)[O-])cc1NC(C)=O |
| 2.26 | CCCCOc1ccc([N+](=O)[O-])cc1NC(C)=O |

— the SangsterLogP compilation
